Measured values as given in publication PMC11785709, “Angelica gigas Nakai (Korean Dang-gui) Root Alcoholic Extracts in Health Promotion and Disease Therapy – active Phytochemicals and In Vivo Molecular Targets” (Pharmaceutical Research, 2025).
Several values for one entry are separate records, joined by “and”; a condition that tells them apart may be missing. Equal values may be shown once. Read-outs that look alike come from different tables or passages of the source.

Experiments:
ROCK2 [1] = target: T1, ROCK2 (Homo sapiens, UniProt O75116); test: Reaction Biology kinase activity inhibition; format: biochemical; design: purchased Reaction Biology (Malvern, PA)
Excerpt: (§1) The second screening was the Reaction Biology® (Malvern, PA) kinase activity inhibition tests, which screened for more than 600 protein kinases and lipid kinases, using miniaturized radioisotope-based assay platform with γ-^33P-ATP, followed by confirmation with IC50 kinase profiling service with 5 concentrations of test compound (i.e., DOH and DA) with curve fitting.

ROCK1 [2] = target: T2, ROCK1 (Homo sapiens, UniProt Q13464); test: Reaction Biology kinase activity inhibition; format: biochemical; design: purchased Reaction Biology (Malvern, PA)
Excerpt: as §1

DRAK2 (STK17B) = target: T3, DRAK2 (STK17B) (Homo sapiens, UniProt O94768); test: KINOMEscan competition binding; details: for Kd: validation Kd titration, 0.003 to 50 µM, two values per cell
T3 construct: purchased Eurofins DiscoverX (KINOMEscan)
T3 sequence (O94768 1-372): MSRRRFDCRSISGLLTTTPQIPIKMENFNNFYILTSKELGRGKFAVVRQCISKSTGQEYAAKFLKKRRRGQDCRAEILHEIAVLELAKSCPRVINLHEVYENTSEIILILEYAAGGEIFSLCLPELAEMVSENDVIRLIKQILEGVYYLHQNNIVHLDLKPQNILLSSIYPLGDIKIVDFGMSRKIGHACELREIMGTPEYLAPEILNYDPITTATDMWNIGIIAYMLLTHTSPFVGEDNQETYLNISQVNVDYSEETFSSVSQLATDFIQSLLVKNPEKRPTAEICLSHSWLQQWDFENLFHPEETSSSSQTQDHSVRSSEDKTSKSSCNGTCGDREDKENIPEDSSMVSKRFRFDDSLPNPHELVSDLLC
Method: (§2) Two distinct platforms were used for initial screening with 50 µM DOH vs. DMSO vehicle. The first was the Eurofins DiscoverX KINOMEscan® (Freemont, CA USA) profiling platform, which employed a proprietary active site-directed competition binding assay to quantitatively measure interactions between a test compound (i.e., DOH) and 468 human protein kinases and disease relevant mutant variants either directly (sterically) or indirectly (allosterically) to prevent a kinase binding to its immobilized substrate (ligand). The top 8 hits were subjected to secondary screening verification by DOH concentration-titration for dissociation constant (Kd). For ROCK1 and ROCK2, DA was chosen for Kd titration as well, because it is ~ 10 × higher than D in peripheral circulation due to its resistance to hydrolysis by carboxyesterase-2 (Fig. 1C).

MKNK2 = target: T4, MKNK2 (Homo sapiens, UniProt Q9HBH9); test: KINOMEscan competition binding; details: for Kd: validation Kd titration, 0.003 to 50 µM, two values per cell
T4 construct: purchased Eurofins DiscoverX (KINOMEscan)
Method: as §2

MAO-B = test system: MAO-B; design: method as in PMID 28109809; details: screened at 10 μM; cited from earlier work
ROCK2 [3] = target: T1, ROCK2; test: KINOMEscan competition binding; design: purchased Eurofins DiscoverX (KINOMEscan)
Method: as §2

ROCK1 [4] = target: T2, ROCK1; test: KINOMEscan competition binding; design: purchased Eurofins DiscoverX (KINOMEscan)
Method: as §2

AR; ERα = details: cited from earlier work; for mode of action on AR and ERα: responsive cancer cell culture models
[5] = cited from earlier work; for Cmax: 4.6 g AGN root powder per subject (0.055 mg D, 0.184 mg DA, 1.095 mg nodakenin); for t1/2 / tmax: 4.6 g AGN root powder per subject
CAMKK1 = target: T5, CAMKK1 (Homo sapiens, UniProt Q8N5S9); test: Reaction Biology kinase activity inhibition; format: biochemical; details: for IC50: validation titration, 6.25 to 100 µM, Hotspot confirmation
T5 construct: purchased Reaction Biology (Malvern, PA)
Excerpt: as §1

PDK2/PDHK2 = target: T6, PDK2/PDHK2 (Homo sapiens, UniProt Q15119); test: Reaction Biology kinase activity inhibition; format: biochemical; details: for IC50: validation titration, 6.25 to 100 µM, Hotspot confirmation
T6 construct: purchased Reaction Biology (Malvern, PA)
Excerpt: as §1

DDR1 = target: T7, DDR1 (Homo sapiens, UniProt Q08345); test: Reaction Biology kinase activity inhibition; format: biochemical; details: for IC50: validation titration, 6.25 to 100 µM, Hotspot confirmation
T7 construct: purchased Reaction Biology (Malvern, PA)
Excerpt: as §1

BRSK2 = target: T8, BRSK2 (Homo sapiens, UniProt Q8IWQ3); test: Reaction Biology kinase activity inhibition; format: biochemical; details: for IC50: validation titration, 6.25 to 100 µM, Hotspot confirmation
T8 construct: purchased Reaction Biology (Malvern, PA)
T8 sequence (Q8IWQ3 1-736): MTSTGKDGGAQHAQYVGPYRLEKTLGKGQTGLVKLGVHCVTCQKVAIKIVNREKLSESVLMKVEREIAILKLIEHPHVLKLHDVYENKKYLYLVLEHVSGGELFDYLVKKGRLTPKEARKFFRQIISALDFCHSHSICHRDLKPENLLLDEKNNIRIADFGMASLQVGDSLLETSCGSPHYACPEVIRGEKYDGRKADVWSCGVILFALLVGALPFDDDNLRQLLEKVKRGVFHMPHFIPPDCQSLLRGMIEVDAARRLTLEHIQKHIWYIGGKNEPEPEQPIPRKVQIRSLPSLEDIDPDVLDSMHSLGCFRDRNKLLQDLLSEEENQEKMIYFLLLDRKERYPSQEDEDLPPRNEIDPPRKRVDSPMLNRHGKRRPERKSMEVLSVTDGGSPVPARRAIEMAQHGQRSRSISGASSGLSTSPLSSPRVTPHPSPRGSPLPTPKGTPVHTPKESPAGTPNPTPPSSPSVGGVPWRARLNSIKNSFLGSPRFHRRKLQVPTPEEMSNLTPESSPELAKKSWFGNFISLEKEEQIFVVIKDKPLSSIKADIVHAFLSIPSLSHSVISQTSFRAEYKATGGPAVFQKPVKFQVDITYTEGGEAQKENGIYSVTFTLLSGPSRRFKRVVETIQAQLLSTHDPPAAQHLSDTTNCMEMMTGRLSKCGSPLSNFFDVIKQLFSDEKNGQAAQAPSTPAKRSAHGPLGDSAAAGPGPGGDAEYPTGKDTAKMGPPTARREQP
Excerpt: as §1

[6] = Reaction Biology, Inc, Table 1, read-out: ROCK2 IC50
[7] = initial screening, DOH (50 µM), Data 1 and Data 2
[8] = initial screening, DOH (50 µM), Data 1 and Data 2, read-out: % Enzyme Activity (relative to DMSO controls)
[9] = Reaction Biology, Inc, Table 1, read-out: ROCK1 IC50
[10] = initial screening, DOH 50 µM, read-out: Substrate bound % Control
[11] = Eurofins DiscoveRx, Table 1, read-out: ROCK2 Kd
[12] = validation Kd titration, 0.003 to 50 µM, two values per cell, read-out: Kd
[13] = Eurofins DiscoveRx, Table 1, read-out: ROCK1 Kd
[14] = validation titration, 6.25 to 100 µM, Hotspot confirmation, read-out: IC50

T4 sequence (Q9HBH9 whole entry): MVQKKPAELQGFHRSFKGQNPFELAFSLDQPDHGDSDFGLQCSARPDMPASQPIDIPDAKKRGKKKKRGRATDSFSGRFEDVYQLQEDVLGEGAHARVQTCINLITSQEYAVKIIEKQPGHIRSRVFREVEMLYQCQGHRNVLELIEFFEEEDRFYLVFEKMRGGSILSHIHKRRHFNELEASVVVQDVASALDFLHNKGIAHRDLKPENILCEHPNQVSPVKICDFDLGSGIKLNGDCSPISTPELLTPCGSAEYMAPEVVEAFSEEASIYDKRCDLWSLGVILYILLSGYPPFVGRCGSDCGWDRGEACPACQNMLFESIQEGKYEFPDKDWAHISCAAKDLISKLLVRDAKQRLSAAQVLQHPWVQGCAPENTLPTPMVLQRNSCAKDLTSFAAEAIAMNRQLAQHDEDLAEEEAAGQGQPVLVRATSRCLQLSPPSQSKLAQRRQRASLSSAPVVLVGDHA
T1 sequence (O75116 whole entry): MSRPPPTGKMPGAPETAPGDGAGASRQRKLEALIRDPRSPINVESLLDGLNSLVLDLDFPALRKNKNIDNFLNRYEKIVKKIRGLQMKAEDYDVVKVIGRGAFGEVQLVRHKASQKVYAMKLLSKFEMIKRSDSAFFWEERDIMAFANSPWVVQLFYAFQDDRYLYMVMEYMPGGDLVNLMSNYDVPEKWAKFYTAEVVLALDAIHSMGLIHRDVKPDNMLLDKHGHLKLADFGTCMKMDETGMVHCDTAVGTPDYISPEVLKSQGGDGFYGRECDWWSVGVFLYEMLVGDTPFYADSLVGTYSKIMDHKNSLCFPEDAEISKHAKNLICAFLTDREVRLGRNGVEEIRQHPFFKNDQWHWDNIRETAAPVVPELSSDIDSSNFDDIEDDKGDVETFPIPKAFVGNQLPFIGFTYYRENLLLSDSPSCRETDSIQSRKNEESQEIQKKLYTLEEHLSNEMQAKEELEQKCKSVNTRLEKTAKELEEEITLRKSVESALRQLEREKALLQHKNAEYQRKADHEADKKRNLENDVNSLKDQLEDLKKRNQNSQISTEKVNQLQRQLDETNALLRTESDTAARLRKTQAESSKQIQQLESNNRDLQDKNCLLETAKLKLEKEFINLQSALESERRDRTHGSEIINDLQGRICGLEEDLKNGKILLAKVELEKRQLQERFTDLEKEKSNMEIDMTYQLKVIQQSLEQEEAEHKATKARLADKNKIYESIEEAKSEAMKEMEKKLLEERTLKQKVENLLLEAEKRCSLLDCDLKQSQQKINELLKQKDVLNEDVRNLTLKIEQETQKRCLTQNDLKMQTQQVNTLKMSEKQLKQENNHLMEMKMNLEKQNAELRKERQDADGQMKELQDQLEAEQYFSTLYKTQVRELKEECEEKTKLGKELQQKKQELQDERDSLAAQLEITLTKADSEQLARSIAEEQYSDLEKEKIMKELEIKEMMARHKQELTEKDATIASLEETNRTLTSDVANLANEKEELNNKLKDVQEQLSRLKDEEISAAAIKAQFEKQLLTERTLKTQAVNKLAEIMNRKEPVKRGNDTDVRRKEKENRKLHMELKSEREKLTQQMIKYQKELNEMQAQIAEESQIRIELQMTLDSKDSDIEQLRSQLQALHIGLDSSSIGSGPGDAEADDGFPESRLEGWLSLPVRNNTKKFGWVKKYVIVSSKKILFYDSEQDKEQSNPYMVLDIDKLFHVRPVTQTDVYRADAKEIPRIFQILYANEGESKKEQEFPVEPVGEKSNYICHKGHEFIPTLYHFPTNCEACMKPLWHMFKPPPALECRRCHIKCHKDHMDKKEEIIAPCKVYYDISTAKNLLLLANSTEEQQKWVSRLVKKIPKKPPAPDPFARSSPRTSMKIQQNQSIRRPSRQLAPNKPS
T5 sequence (Q8N5S9 whole entry): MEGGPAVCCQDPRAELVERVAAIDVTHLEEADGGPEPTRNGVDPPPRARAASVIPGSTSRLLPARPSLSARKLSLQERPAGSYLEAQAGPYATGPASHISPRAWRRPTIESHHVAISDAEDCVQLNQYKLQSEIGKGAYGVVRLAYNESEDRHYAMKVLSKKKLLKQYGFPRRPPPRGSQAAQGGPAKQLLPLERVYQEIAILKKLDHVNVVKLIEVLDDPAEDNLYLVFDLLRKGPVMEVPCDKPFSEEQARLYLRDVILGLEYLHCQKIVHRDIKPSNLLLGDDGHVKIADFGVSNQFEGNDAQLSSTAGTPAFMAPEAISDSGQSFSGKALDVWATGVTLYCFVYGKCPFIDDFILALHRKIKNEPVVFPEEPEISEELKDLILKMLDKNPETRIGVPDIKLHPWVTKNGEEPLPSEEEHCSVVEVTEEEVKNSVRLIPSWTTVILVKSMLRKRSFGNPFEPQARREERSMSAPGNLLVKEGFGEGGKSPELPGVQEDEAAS
T7 sequence (Q08345 19-913): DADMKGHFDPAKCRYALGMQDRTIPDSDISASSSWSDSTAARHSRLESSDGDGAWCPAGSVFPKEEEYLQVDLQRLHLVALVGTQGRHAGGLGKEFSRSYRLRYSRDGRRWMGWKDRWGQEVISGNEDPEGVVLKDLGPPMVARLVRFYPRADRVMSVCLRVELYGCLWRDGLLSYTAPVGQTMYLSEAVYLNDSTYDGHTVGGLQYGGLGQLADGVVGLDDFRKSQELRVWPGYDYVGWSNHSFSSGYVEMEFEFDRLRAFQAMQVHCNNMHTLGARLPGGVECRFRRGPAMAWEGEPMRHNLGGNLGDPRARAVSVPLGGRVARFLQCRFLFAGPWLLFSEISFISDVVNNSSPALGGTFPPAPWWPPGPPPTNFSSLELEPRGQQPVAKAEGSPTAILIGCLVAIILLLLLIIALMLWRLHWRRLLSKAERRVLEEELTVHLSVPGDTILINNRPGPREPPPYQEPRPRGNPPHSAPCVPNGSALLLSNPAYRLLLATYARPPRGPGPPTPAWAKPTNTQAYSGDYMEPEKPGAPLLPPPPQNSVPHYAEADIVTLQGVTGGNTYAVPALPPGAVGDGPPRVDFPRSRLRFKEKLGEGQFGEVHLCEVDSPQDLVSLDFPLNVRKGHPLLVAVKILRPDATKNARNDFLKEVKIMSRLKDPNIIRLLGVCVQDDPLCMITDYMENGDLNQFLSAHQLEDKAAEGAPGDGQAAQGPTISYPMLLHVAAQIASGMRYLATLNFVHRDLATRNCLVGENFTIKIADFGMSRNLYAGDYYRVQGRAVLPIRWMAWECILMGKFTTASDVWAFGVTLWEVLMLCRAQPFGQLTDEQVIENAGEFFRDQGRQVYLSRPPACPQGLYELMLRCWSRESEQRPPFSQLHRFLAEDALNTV
T2 sequence (Q13464 whole entry): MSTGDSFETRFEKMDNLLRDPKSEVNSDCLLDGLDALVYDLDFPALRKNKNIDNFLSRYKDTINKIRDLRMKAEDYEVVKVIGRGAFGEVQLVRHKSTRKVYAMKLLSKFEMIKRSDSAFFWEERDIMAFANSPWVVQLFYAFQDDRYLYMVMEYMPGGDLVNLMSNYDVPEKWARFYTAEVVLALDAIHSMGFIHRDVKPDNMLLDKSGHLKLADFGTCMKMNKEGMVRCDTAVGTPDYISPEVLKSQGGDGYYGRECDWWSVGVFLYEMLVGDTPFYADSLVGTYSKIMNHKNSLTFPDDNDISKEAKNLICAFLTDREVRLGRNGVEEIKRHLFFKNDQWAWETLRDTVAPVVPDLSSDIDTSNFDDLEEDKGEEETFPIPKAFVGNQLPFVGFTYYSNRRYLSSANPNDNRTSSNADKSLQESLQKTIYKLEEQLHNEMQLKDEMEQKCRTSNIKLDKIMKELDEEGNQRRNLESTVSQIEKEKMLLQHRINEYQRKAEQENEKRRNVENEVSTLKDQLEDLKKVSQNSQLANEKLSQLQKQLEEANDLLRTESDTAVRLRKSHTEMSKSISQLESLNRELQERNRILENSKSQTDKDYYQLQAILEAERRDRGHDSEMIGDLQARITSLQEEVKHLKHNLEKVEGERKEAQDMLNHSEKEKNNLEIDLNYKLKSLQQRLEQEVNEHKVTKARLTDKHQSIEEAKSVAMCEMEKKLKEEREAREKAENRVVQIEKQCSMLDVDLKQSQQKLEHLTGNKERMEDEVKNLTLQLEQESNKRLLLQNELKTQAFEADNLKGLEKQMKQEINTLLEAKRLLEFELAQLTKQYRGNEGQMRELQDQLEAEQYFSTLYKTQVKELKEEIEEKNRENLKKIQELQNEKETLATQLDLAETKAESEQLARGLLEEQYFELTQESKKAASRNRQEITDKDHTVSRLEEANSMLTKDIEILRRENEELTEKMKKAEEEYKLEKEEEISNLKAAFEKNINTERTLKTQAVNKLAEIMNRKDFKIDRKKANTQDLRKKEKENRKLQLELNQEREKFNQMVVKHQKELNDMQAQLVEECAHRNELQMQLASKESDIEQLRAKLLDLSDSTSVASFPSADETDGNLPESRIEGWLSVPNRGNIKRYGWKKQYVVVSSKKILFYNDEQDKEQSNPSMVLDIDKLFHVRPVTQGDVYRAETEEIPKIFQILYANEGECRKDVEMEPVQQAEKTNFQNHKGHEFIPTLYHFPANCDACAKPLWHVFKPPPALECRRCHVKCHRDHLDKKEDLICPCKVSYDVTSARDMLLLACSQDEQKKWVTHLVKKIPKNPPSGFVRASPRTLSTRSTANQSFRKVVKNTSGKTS

Q: With `CC1(C)Oc2cc3oc(=O)ccc3cc2C[C@@H]1O` [DOH, decursinol] as the compound, how does the IC50 (ROCK2 [1]; [6]) read?
A: 85 µM

Q: What about the “DOH % Inhibition” value (ROCK2 [1]; initial screening, DOH 50 µM) of the same compound?
A: 43.2%

Q: And the inhibition at 50 µM (ROCK2 [1]; initial screening, DOH 50 µM)?
A: 43%

Q: And the “% Enzyme Activity (relative to DMSO controls)” value (ROCK2 [1]; [7])?
A: 56.1%

Q: And the remaining activity at 50 µM (ROCK2 [1]; [8])?
A: 57.5%

Q: And the IC50 (ROCK1 [2]; [9])?
A: 81 µM

Q: And the “DOH % Inhibition” value (ROCK1 [2]; initial screening, DOH 50 µM)?
A: 26.6%

Q: And the inhibition at 50 µM (ROCK1 [2]; initial screening, DOH 50 µM)?
A: 27%

Q: And the “% Enzyme Activity (relative to DMSO controls)” value (ROCK1 [2]; [7])?
A: 72.1%

Q: What about the remaining activity at 50 µM (ROCK1 [2]; [8]) of the same compound?
A: 74.7%

Q: And the remaining binding at 50 µM (DRAK2 (STK17B); [10])?
A: 24%

Q: And the Kd (DRAK2 (STK17B))?
A: 21 µM and 22 µM

Q: And the remaining binding at 50 µM (MKNK2; [10])?
A: 25%

Q: What about the Kd (MKNK2) of the same compound?
A: 20 µM and 25 µM

Q: What about the “inhibitory activity on MAO-B” value (MAO-B) of the same compound?
A: lacked any inhibitory activity

Q: And the Kd (ROCK2 [3]; [11])?
A: 14.5 µM

Q: What about the remaining binding at 50 µM (ROCK2 [3]; [10]) of the same compound?
A: 21%

Q: What about the Kd (ROCK2 [3]; [12]) of the same compound?
A: 14 µM and 15 µM

Q: And the Kd (ROCK1 [4]; [13])?
A: 7.5 µM

Q: And the remaining binding at 50 µM (ROCK1 [4]; [10])?
A: 12%

Q: What about the Kd (ROCK1 [4]; [12]) of the same compound?
A: 7.3 µM and 7.6 µM

Q: And the EC50 (AR; ERα; read-out: AR, ERα agonist EC50)?
A: ~10 µM

Q: What about the “mode of action on AR and ERα” value (AR; ERα) of the same compound?
A: weak partial agonist activity

Q: What about the Cmax [5] of the same compound?
A: 0.92 ng/mL

Q: What about the t1/2 [5] of the same compound?
A: 2.62 h

Q: And the tmax [5]?
A: 0.64 h

Q: What about the inhibition at 50 µM (CAMKK1; initial screening, DOH 50 µM) of the same compound?
A: 40.3%

Q: What about the “% Enzyme Activity (relative to DMSO controls)” value (CAMKK1; [7]) of the same compound?
A: 59.3%

Q: What about the remaining activity at 50 µM (CAMKK1; [8]) of the same compound?
A: 60.1%

Q: And the IC50 (CAMKK1)?
A: > 100 µM

Q: And the inhibition at 50 µM (PDK2/PDHK2; initial screening, DOH 50 µM)?
A: 39.7%

Q: And the “% Enzyme Activity (relative to DMSO controls)” value (PDK2/PDHK2; [7])?
A: 59.8%

Q: And the remaining activity at 50 µM (PDK2/PDHK2; [8])?
A: 60.8%

Q: And the IC50 (PDK2/PDHK2)?
A: > 100 µM

Q: What about the inhibition at 50 µM (DDR1; initial screening, DOH 50 µM) of the same compound?
A: 49%

Q: What about the “% Enzyme Activity (relative to DMSO controls)” value (DDR1; [7]) of the same compound?
A: 49.7%

Q: And the remaining activity at 50 µM (DDR1; [8])?
A: 52.3%

Q: And the IC50 (DDR1)?
A: > 100 µM

Q: What about the inhibition at 50 µM (BRSK2; initial screening, DOH 50 µM) of the same compound?
A: 46.8%

Q: And the “% Enzyme Activity (relative to DMSO controls)” value (BRSK2; [7])?
A: 52.6%

Q: And the remaining activity at 50 µM (BRSK2; [8])?
A: 53.8%

Q: What about the IC50 (BRSK2) of the same compound?
A: > 100 µM

Q: What does the source list for `C/C=C(/C)C(=O)O[C@H]1Cc2cc3ccc(=O)oc3cc2OC1(C)C` [DA, decursinol angelate]?
A: IC50 (ROCK2 [1]; [6]): 23 µM; IC50 (ROCK2 [1]; [14]): 22 µM; IC50 (ROCK1 [2]; [9]): 18 µM; IC50 (ROCK1 [2]; [14]): 16 µM and 20 µM; Kd (DRAK2 (STK17B)): > 50 µM; Kd (MKNK2): > 50 µM; inhibitory activity on MAO-B (MAO-B): lacked any inhibitory activity; Kd (ROCK2 [3]; [11]): 5.6 µM; Kd (ROCK2 [3]; [12]): 5.4 µM and 5.8 µM; Kd (ROCK1 [4]; [13]): 2.1 µM; Kd (ROCK1 [4]; [12]): 1.9 µM and 2.3 µM; IC50 (AR; ERα; antagonist/degrader): ~5 µM; mode of action on AR and ERα (AR; ERα): antagonists/degraders; Cmax [5]: 7.72 ng/mL; t1/2 [5]: 4.04 h; tmax [5]: 0.31 h; IC50 (CAMKK1): > 100 µM; IC50 (PDK2/PDHK2): > 100 µM; IC50 (DDR1): > 100 µM; IC50 (BRSK2): > 100 µM
